Experimental data published in patent publication US20090130064A1, “DIFFERENTIATION OF STEM CELLS AND STABILIZATION OF PHENOTYPICAL PROPERTIES OF PRIMARY CELLS” (priority 2004, published 2009).

How the values were obtained:
rat BMSC = experiment: Albumin ELISA, ALB secretion by rat BMSC-derived hepatocyte-like cells; assay type: cell-based
Description: Then, cells were cultivated in the presence of liver-specific (LSP) cytokines either as a cocktail [basal medium+10 ng/ml FGF-4 (fibroblast growth factor type 4), 20 ng/ml HGF (hepatic growth factor) (all from R&D), 1×ITS (insulin, transferrin, selenious acid) and 0.05 μM Dex (dexamethasone) (all from Sigma)] or separately (until day 3: basal medium+10 ng/ml FGF-4; from days 3 to 6: basal medium+20 ng/ml HGF; from day 6 on: basal medium+20 ng/ml HGF+1×ITS and 0.05 μM Dex). […] The culture media were changed every three days.
ALB concentrations secreted into the media were analysed by competitive enzyme-linked immunosorbent assay (ELISA) as described (Koebe et al. Int J Artif Organs 17: 95-106, 1994). The ALB levels were normalized with respect to the media used.

C/EBPalpha = experiment: Western blotting of C/EBPalpha in primary hepatocytes; assay type: cell-based, rat; details: 1 μM TSA added at 0h or 4 h; day 4 and 7
Text: Hepatocytes were isolated from male Sprague-Dawley rats by a two-step collagenase perfusion as described (De Smet et al. In ‘Methods in Molecular Biology, Vol. 107: Cytochrome P450 Protocols’, Philips IR and Shephard E A, eds., p.p 295-301, Humana Press, Totowa, 1998). Hepatocytes were cultivated in monolayer cultures with Willam's E Medium (WE) for 7 days. […] The maintenance of differentiation characteristics was studied after 2, 4, and 7 days (D2, D4, D7) of culture.
Western blotting was performed using standard techniques known in the art. Proteins (25 μg) were resolved on a 10% SDS-PAGE and blotted onto nitrocellulose membrane. The membranes were incubated with appropriate concentrations of primary and secondary antibodies. Proteins were detected using appropriate dilutions of primary and secondary antibodies. Detection was done using the ECL detection system (Amersham Pharmacia Biotech, UK) according to manufacturer's recommendations.

Cx32 = Cx32 expression (immunoblotting) in rat hepatocytes; assay type: cell-based; details: 1 μM TSA
Description: In all conditions, the hepatocytes were cultivated as a monolayer configuration, and samples were taken at days 1, 4 and 7 (D1, D4, D7) of the cultivation time.
Proteins (25 or 50 μg) were resolved on SDS-PAGE (7.5, 10 or 12%) and blotted afterwards onto nitrocellulose membranes. After blocking with non-fatty milk, membranes were incubated with appropriate concentrations of primary and secondary antibodies (HRP labeled). Proteins were detected using the ECL detection system (Amersham Biosciences). Primary antibodies: Cx26 (Zymed, 1/250), Cx32 (Sigma, 1/500), Cx43 (Zymed, 1/100).
Hepatocytes were fixed with cold ethanol, peremeabilised with Triton X-100 (Sigma) and blocked with non-fatty milk. Following incubation with appropriate concentrations of primary and secondary antibodies (FITC or TRITC labeled), samples were mounted with DAPI-containing Vectashield (Vector Laboratories). Detection was performed by fluorescence microscopy (Leica DMR/XA).

primary rat hepatocytes = experiment: De novo protein synthesis by [3H]-leucine incorporation; assay type: cell-based; details: co-treatment with EGF
Description: De novo protein synthesis was determined by [^3H]-leucine incorporation. [^3H]-Leucine (2 μCi/ml final concentration) was added to the hepatocyte cultures 68 hours after plating. Four hours later, cells were washed twice with ice-cold PBS and lyzed in 40% cold trichloroacetic acid. After 2 additional washes in 10% cold trichloroacetic acid, the pellet was solubilized in NaOH (0.1N). The amount of [^3H]-leucine was subsequently measured by liquid scintillation.

caspase-3, Bid and Bax = experiment: Western blotting of caspase-3 activation, Bid and Bax in primary rat hepatocytes; assay type: cell-based
Text: (§1) Male outbred Sprague-Dawley rats (200-300 g, Iffa Credo, Brussels, Belgium) were kept under controlled environmental conditions (12-hr light-dark cycle) and fed a standard diet (Animafabo A04, water ad libitum). Hepatocytes were isolated by a two-step collagenase perfusion as described (De Smet et al. In ‘Methods in Molecular Biology, Vol. 107: Cytochrome P450 Protocols’, Philips I R and Shephard E A, eds., pp 295-301, Humana Press, Totowa, 1998). Cell liability was >90% as determined by trypan blue exclusion. Cells (0.4×10^5 cells/cm^2) were plated in MEM/M199 (3:1), containing BSA (1 mg/ml), bovine insulin (10 μg/ml), L-glutamine (2 mM), FBS (10% v/v) and antibiotics (7.3 IU/ml benzyl penicillin, 50 μg/ml streptomycin sulphate, 50 μg/ml kanamycin monosulphstep and 10 μg/ml sodium ampicillin). Four hours after plating, serum-containing medium was removed and fresh serum-free medium was added to the cultures. Culture medium was refreshed daily. EGF (50 ng/ml) was added 4 hours after plating. A 100 mM stock solution of 4-Me2N-BAVAH was prepared in ethanol.
Total cell extracts were prepared as described previously (Papeleu et al. J Hepatol 39: 374-382, 2003) and proteins (25 or 50 μg per lane) were separated electrophoretically by SDS-PAGE and electroblotted onto nitrocellulose membranes (Amersham Pharmacia Biotech, Buckinghamshire, UK). Equal sample loading was verified by immersion of the membranes in Ponceau S. Unspecific binding sites were blocked with 5% skim milk/Tris-buffered saline. Incubations with primary antibodies were performed overnight at 4° C. under gentle shaking. Proteins were detected using the ECL detection system (Amersham Pharmacia Biotech, Buckinghamshire, UK) according to the manufacturer's recommendations.

CYP 2B = experiment: Western blot of CYP 2B in primary rat hepatocytes; assay type: cell-based; details: 50 μM
Text: as §1, with “(Animalabo” for “(Animafabo”, “viability” for “liability”, “monosulphate” for “monosulphstep”

SMILES | cell death (rat BMSC; cocktail of LSP cytokines + TSA, from day 16 on) | increase of the ALB secretion from day 15 to 17 (rat BMSC; sequential cytokines + 1 μM TSA) [fold] | ALB secretion (rat BMSC; sequential cytokines + 1 μM TSA, from day 15 on) | expression of C/EBPalpha (C/EBPalpha) | expression of Cx32 (Cx32) | de novo protein synthesis (primary rat hepatocytes) | expression of pro-apoptotic proteins Bid and Bax (caspase-3, Bid and Bax; 50 μM) | cleavage of pro-caspase-3 into active p18 fragments (caspase-3, Bid and Bax; 24 and 48 hours of culture) | cleavage of pro-caspase-3 into active p18 fragments (caspase-3, Bid and Bax; after 72 hours of treatment) | expression of CYP 2B (CYP 2B)
CC(C=CC(=O)NO)=CC(C)C(=O)c1ccc(N(C)C)cc1 (stereo not shown) [TSA] | cell death had occurred | 2.5 | significantly upregulated | increase expression | induces the expressions | – | – | – | – | –
CN(C)c1ccc(C(=O)NCCCCC(=O)NO)cc1 [4-Me2N-BAVAH, 5-(4-dimethylaminobenzoyl)-aminovaleric acid hydroxamide] | – | – | – | – | – | not further enhanced | decreased the expression | significantly lower | completely prevented | Increased Expression
